Calls of active or inactive are those of the source. How the calls were made is not given here.
Tested on: CCRIS mutagenicity, Ames/micronucleus/aberration tests
Experiment: CCRIS mutagenicity studies
[1] = Test System: AMES SALMONELLA TYPHIMURIUM, Strain/Indicator: TA98, Metabolic Activation: NONE, Method: PREINCUBATION
[2] = Test System: AMES SALMONELLA TYPHIMURIUM, Strain/Indicator: TA100, Metabolic Activation: NONE, Method: PREINCUBATION
[3] = Test System: AMES SALMONELLA TYPHIMURIUM, Strain/Indicator: TA1535, Metabolic Activation: NONE, Method: PREINCUBATION
[4] = Test System: AMES SALMONELLA TYPHIMURIUM, Strain/Indicator: TA1537, Metabolic Activation: NONE, Method: PREINCUBATION

In the case of `Cc1oc(=O)oc1CN1CCN(c2cc3c(cc2F)c(=O)c(C(=O)O)c2n3C(C)S2)CC1` (stereo not given), the mutagenic call [1] is reported as “inactive; negative”, the mutagenic call (Test System: AMES SALMONELLA TYPHIMURIUM, Strain/Indicator: TA98, Metabolic Activation: RAT, LIVER, S-9, PHENOBARBITAL AND 5,6-BENZOFLAVONE, Method: PREINCUBATION) is reported as “inactive; negative” and the mutagenic call [2] is reported as “inactive; negative”. For the same compound, the mutagenic call (Test System: AMES SALMONELLA TYPHIMURIUM, Strain/Indicator: TA100, Metabolic Activation: RAT, LIVER, S-9, PHENOBARBITAL AND 5,6-BENZOFLAVONE, Method: PREINCUBATION) was “inactive; negative”, the mutagenic call [3] was “inactive; negative” and the mutagenic call (Test System: AMES SALMONELLA TYPHIMURIUM, Strain/Indicator: TA1535, Metabolic Activation: RAT, LIVER, S-9, PHENOBARBITAL AND 5,6-BENZOFLAVONE, Method: PREINCUBATION) was “inactive; negative”. The mutagenic call [4] was “inactive; negative”, the mutagenic call (Test System: AMES SALMONELLA TYPHIMURIUM, Strain/Indicator: TA1537, Metabolic Activation: RAT, LIVER, S-9, PHENOBARBITAL AND 5,6-BENZOFLAVONE, Method: PREINCUBATION) was “inactive; negative” and the mutagenic call (Test System: E. COLI, Strain/Indicator: WP2 UVRA, Metabolic Activation: NONE, Method: PREINCUBATION) was “inactive; negative”. For the same compound, the mutagenic call (Test System: E. COLI, Strain/Indicator: WP2 UVRA, Metabolic Activation: RAT, LIVER, S-9, PHENOBARBITAL AND 5,6-BENZOFLAVONE, Method: PREINCUBATION) was “inactive; negative”.

For `CC(N)=S`, the mutagenic call (Test System: AMES SALMONELLA TYPHIMURIUM, Strain/Indicator: TA102, Metabolic Activation: RAT LIVER S-9, PHENOBARBITAL AND 5,6-BENZOFLAVONE, Method: STANDARD PLATE) was “inactive; negative”, the mutagenic call (Test System: AMES SALMONELLA TYPHIMURIUM, Strain/Indicator: TA2638, Metabolic Activation: RAT LIVER S-9, PHENOBARBITAL AND 5,6-BENZOFLAVONE, Method: STANDARD PLATE) was “inactive; negative” and the mutagenic call (Test System: E. COLI, Strain/Indicator: WP2 (PKM101), Metabolic Activation: RAT LIVER S-9, PHENOBARBITAL AND 5,6-BENZOFLAVONE, Method: STANDARD PLATE) was “inactive; negative”. For the same compound, the mutagenic call (Test System: E. COLI, Strain/Indicator: WP2 UVRA (PKM101), Metabolic Activation: RAT LIVER S-9, PHENOBARBITAL AND 5,6-BENZOFLAVONE, Method: STANDARD PLATE) was “inactive; negative”, the mutagenic call (Test System: E. COLI, Strain/Indicator: WP2 UVRA, Metabolic Activation: HAMSTER, LIVER, S-9, AROCLOR 1254, Method: STANDARD PLATE) was “inactive; negative” and the mutagenic call (Test System: E. COLI, Strain/Indicator: WP2 UVRA, Metabolic Activation: HAMSTER, LIVER, S-9, Method: STANDARD PLATE) was “inactive; negative”. For the same compound, the mutagenic call (Test System: E. COLI, Strain/Indicator: WP2 UVRA, Metabolic Activation: MOUSE, LIVER, S-9, AROCLOR 1254, Method: STANDARD PLATE) was “inactive; negative”, the mutagenic call (Test System: E. COLI, Strain/Indicator: WP2 UVRA, Metabolic Activation: MOUSE, LIVER, S-9, Method: STANDARD PLATE) was “inactive; negative” and the mutagenic call (Test System: E. COLI, Strain/Indicator: WP2 UVRA, Metabolic Activation: NONE, Method: STANDARD PLATE) was “inactive; negative”. The mutagenic call (Test System: E. COLI, Strain/Indicator: WP2 UVRA, Metabolic Activation: RAT, LIVER, S-9, AROCLOR 1254, Method: STANDARD PLATE) was “inactive; negative”, the mutagenic call (Test System: E. COLI, Strain/Indicator: WP2 UVRA, Metabolic Activation: RAT, LIVER, S-9, Method: STANDARD PLATE) was “inactive; negative” and the mutagenic call (Test System: MOUSE LYMPHOMA, Strain/Indicator: L5178Y (TK+/TK-), Metabolic Activation: NONE, Method: SUSPENSION/PLATE) was “active; positive”. The mutagenic call (Test System: MOUSE LYMPHOMA, Strain/Indicator: L5178Y (TK+/TK-), Metabolic Activation: RAT, LIVER, S-9, AROCLOR 1254, Method: SUSPENSION/PLATE) was “active; positive” and the mutagenic call (Test System: MOUSE LYMPHOMA, Strain/Indicator: L5178Y (TK+/TK-), Metabolic Activation: RAT, LIVER, S-9, Method: SUSPENSION/PLATE) was “inactive; negative”.

With `CCCCN=[N+]=[N-]` the mutagenic call (Test System: Ames Salmonella typhimurium, Strain/Indicator: TA100, Metabolic Activation: None, Method: Preincubation) was “inactive; negative” and the mutagenic call (Test System: Ames Salmonella typhimurium, Strain/Indicator: TA100, Metabolic Activation: Rat, Liver, S-9, Aroclor 1254, Method: Preincubation) was “active; positive”.

In the case of `CCN(CCCl)CCCNc1c2ccccc2nc2c1ccc1ccccc12`, the mutagenic call (Test System: AMES SALMONELLA TYPHIMURIUM, Strain/Indicator: TA98, Metabolic Activation: NONE, Method: STANDARD PLATE) is reported as “active; positive”, the mutagenic call (Test System: AMES SALMONELLA TYPHIMURIUM, Strain/Indicator: TA100, Metabolic Activation: NONE, Method: STANDARD PLATE) is reported as “active; positive” and the mutagenic call (Test System: AMES SALMONELLA TYPHIMURIUM, Strain/Indicator: TA1535, Metabolic Activation: NONE, Method: STANDARD PLATE) is reported as “inactive; negative”. For the same compound, the mutagenic call (Test System: AMES SALMONELLA TYPHIMURIUM, Strain/Indicator: TA1536, Metabolic Activation: NONE, Method: STANDARD PLATE) was “active; positive”, the mutagenic call (Test System: AMES SALMONELLA TYPHIMURIUM, Strain/Indicator: TA1537, Metabolic Activation: NONE, Method: STANDARD PLATE) was “active; positive” and the mutagenic call (Test System: AMES SALMONELLA TYPHIMURIUM, Strain/Indicator: TA1538, Metabolic Activation: NONE, Method: STANDARD PLATE) was “active; positive”. For the same compound, the mutagenic call (Test System: CHO/HGPRT, Strain/Indicator: CHO-K1-BH4, Metabolic Activation: NONE, Method: STANDARD PLATE) was “active; positive”.

In the case of `CC(=O)OCc1ccc2c(c1)OCO2`, the mutagenic call (Test System: AMES SALMONELLA TYPHIMURIUM, Strain/Indicator: TA98, Metabolic Activation: HAMSTER, LIVER, S-9, AROCLOR 1254 (10%), Method: PREINCUBATION) is reported as “inactive; negative”, the mutagenic call [1] is reported as “inactive; negative” and the mutagenic call (Test System: AMES SALMONELLA TYPHIMURIUM, Strain/Indicator: TA98, Metabolic Activation: RAT, LIVER, S-9, AROCLOR 1254 (10%), Method: PREINCUBATION) is reported as “inactive; negative”. For the same compound, the mutagenic call (Test System: AMES SALMONELLA TYPHIMURIUM, Strain/Indicator: TA100, Metabolic Activation: HAMSTER, LIVER, S-9, AROCLOR 1254 (10%), Method: PREINCUBATION) was “inactive; negative”, the mutagenic call [2] was “inactive; negative” and the mutagenic call (Test System: AMES SALMONELLA TYPHIMURIUM, Strain/Indicator: TA100, Metabolic Activation: RAT, LIVER, S-9, AROCLOR 1254 (10%), Method: PREINCUBATION) was “inactive; negative”. The mutagenic call (Test System: AMES SALMONELLA TYPHIMURIUM, Strain/Indicator: TA1535, Metabolic Activation: HAMSTER, LIVER, S-9, AROCLOR 1254 (10%), Method: PREINCUBATION) was “inactive; negative”, the mutagenic call [3] was “inactive; negative” and the mutagenic call (Test System: AMES SALMONELLA TYPHIMURIUM, Strain/Indicator: TA1535, Metabolic Activation: RAT, LIVER, S-9, AROCLOR 1254 (10%), Method: PREINCUBATION) was “inactive; negative”. The mutagenic call (Test System: AMES SALMONELLA TYPHIMURIUM, Strain/Indicator: TA1537, Metabolic Activation: HAMSTER, LIVER, S-9, AROCLOR 1254 (10%), Method: PREINCUBATION) was “inactive; negative”, the mutagenic call [4] was “inactive; negative” and the mutagenic call (Test System: AMES SALMONELLA TYPHIMURIUM, Strain/Indicator: TA1537, Metabolic Activation: RAT, LIVER, S-9, AROCLOR 1254 (10%), Method: PREINCUBATION) was “inactive; negative”.
